Results as given in patent US8541458B2, “Oxabicycloheptanes and oxabicycloheptenes, their preparation and use” (Lixte Biotechnology, Inc., priority 2008, dated 2013).
Where a name gives a salt, the structure may show the parent alone.

Columns and labels:
[1] = system: glioblastoma multiforme cells of line U373; assay: Inhibition of growth of glioblastoma multiforme cells, 7 days exposure; format: cell-based
Method: Inhibition of growth of glioblastoma multiforme cells of line U373 by exposure for 7 days to increasing concentrations of compound 109 compared to 10 uM compound 100.
Inhibition of growth of glioblastoma multiforme cells of line U373 by exposure for 7 days to increasing concentrations of compound 110 compared to 10 uM compound 100.
Inhibition of growth of glioblastoma multiforme cells of line […] by exposure for 7 days to increasing concentrations of compound 113 compared to 10 uM compound 100.
Inhibition of Growth of Glioblastoma Multiforme Cells of Line […] by Exposure for 7 Days to Increasing Concentrations of Compound 109, 110, 112, and 113

Akt = Akt phosphorylation after intraperitoneal administration to mice; format: in vivo; conditions: given intraperitoneally to normal mice
Description: The compounds described herein increase the phosphorylation of several regulatory proteins including Akt. At low doses that are non-toxic to mice, these compounds slightly stimulate cell proliferation and increase phosphorylation of Akt in human cancer cells lines tested, including SH-SY5Y.
The mechanism by which the compounds described herein exert their neuroprotective effect may be by increasing the intra-neuronal cell activity of Akt-1 and enhancing the acetylation of neuronal histones. Each of these compounds when given by intraperitoneal injection increase Akt phosphorylation in mouse neurons. This increase in Aky phosphorylation is associated with an increase in the phosphorylation of GSK-3β. Because increased phosphorylation of GSK-3β is known to decrease its activity, chronic suppression of GSK 3β by the compounds described herein may reduce tau phosphorylation. Reduction in tau phosphorylation reduces the formation of paired helical filaments, an intervention that should lessen the progression of tauopathies, including Alzheimer's disease, Parkinson's disease, amyotrophic lateral sclerosis, and other rarer neurodegenerative diseases characterized by abnormal depositions of tau molecules.

[2] = system: Human Medulloblastoma DAOY cells; assay: DAOY xenografts implanted subcutaneously in SCID mice, tumor volume; format: in vivo; conditions: subcutaneous DAOY xenografts, 0.12 mg and 0.18 mg doses, two weeks of treatment, vs vehicle (PBS)
Method: Medulloblastoma DAOY cells were implanted subcutaneously in the flanks of SCID mice. After 7 days when the implanted tumor cells reached a mass with the average diameter of 6 mm, 6 animals received 0.12 mg of Compound 110, 6 animals received 0.18 mg of Compound 110, and 6 animals, received vehicle (PBS) only. After two weeks of treatment all animals were sacrificed, the subcutaneous tumor masses resected, and their volumes calculated.
Human Medulloblastoma DAOY cells were implanted subcutaneously in the flanks of SCID mice. After 7 days when the implanted tumor cells reached a mass with the average diameter of 6 mm, 6 animals received 0.12 mg of Compound 110, 6 animals received 0.18 mg of Compound 110, and 6 animals received vehicle (PBS) only. After two weeks of treatment, all animals were sacrificed, the subcutaneous tumor masses resected, and their volumes calculated.

[3] = increasing concentrations, 7 days exposure

Row | SMILES | melting point | Akt phosphorylation (Akt) | entry into the brain (Entry into the brain) | inhibition of cell growth [1, 3] | other results
1 | CN1CCN(C(=O)C2C3CCC(O3)C2C(=O)Oc2ccc(CC(N)C(=O)O)cc2)CC1 (centres unmarked) (as salt: hydrochloride) [Compound 110, 3-(4-Methylpiperazine-1-carbonyl)-7-oxa-bicyclo[2,2,1]heptane-2-carboxylic acid 4-(2-amino-2-carboxyethyl)-phenyl ester hydrochloride salt] | 110 °C (dec.) |  |  |  | 
2 | O=C(OCc1ccccc1)C1C2CCC(O2)C1C(=O)N1CCN(CCO)CC1 (centres unmarked) [Compound 109, 3-[4-(2-Hydroxyethyl)-piperazine-1-carbonyl]-7-oxa-bicyclo[2.2.1]heptane-2-carboxylic acid benzyl ester] |  |  |  |  | inhibition of cell growth ([1]; highest concentrations, after 3 day): slight inhibition of cell growth; stimulation of cell growth ([1]; lower concentrations, increasing over 7 days): slight stimulatory activity
3 | CN1CCN(C(=O)C2C3CCC(O3)C2C(=O)Oc2ccc(CC(N)C(=O)O)cc2)CC1 (centres unmarked) [Compound 110, 3-(4-Methylpiperazine-1-carbonyl)-7-oxa-bicyclo[2,2,1]heptane-2-carboxylic acid 4-(2-amino-2-carboxyethyl)-phenyl ester hydrochloride salt] |  | increased Akt phosphorylation | properties that enhance their entry into the brain | inhibited cell growth in a dose dependent manner | inhibition of tumor growth (tumor volume) [2]: significant inhibition of tumor growth
4 | CN1CCN(C(=O)C2C3CCC(O3)C2C(=O)Oc2ccc(CC(NC(=O)OC(C)(C)C)C(=O)O)cc2)CC1 (centres unmarked) [Compound 112, 3-(4-Methylpiperazine-1-carbonyl)-7-oxa-bicyclo[2,2,1]heptane-2-carboxylic acid 4-(2-tert-butoxycarbonylamino-2-carboxyethyl)-phenyl ester] | 165 °C (dec.) |  | properties that enhance their entry into the brain | inhibited cell growth in a dose dependent manner | 
5 | CN1CCN(C(=O)C2C3CCC(O3)C2C(=O)OCC(Cl)(Cl)Cl)CC1 (centres unmarked) [Compound 113, 3-(4-Methyl-piperazine-1-carbonyl)-7-oxa-bicylco[2,2,1]heptane-2-carboxylic acid 2,2,2-trichloroethyl ester] |  | increased Akt phosphorylation | properties that enhance their entry into the brain | inhibited cell growth in a dose dependent manner | 
6 | O=C(O)C1C2CCC(O2)C1C(=O)NCCN1C(=O)NC(c2ccccc2)(c2ccccc2)C1=O (centres unmarked) [Compound 114, 3-[2-(2,5-Dioxo-4,4-diphenyl-imidazolidin-1-yl)-ethylcarbamoyl]-7-oxa-bicyclo(2.2.1]heptane-2-carboxylic acid] |  |  | properties that enhance their entry into the brain |  | 
